# Source: US7968554B2, “Pyrazolo[3,4-d]pyrimidine derivatives” (Hoffman-La Roche Inc., priority 2007, dated 2011)
# Target: T1, b-Raf V600E (Homo sapiens, UniProt P15056, V600E)
# T1 construct: recombinant human b-Raf residues 416-end containing a V600E mutation; purchased Upstate 14-5M; host or cells: baculovirus, Sf21 insect cells
# Assay: b-Raf V600E mutant HTRF assay with 6H-MEK as substrate (dose response)
# Assay type: biochemical
# Conditions: kinase enzyme inhibition, 6H-MEK substrate, read-out: bRaf(V600E) IC50
# Experimental: Kinase Enzyme Inhibition Assay (IC50)
# • Enzyme: recombinant human b-Raf residues 416-end with N-terminal GST-tag from Upstate; (expressed by baculovirus in Sf21 insect cells), 0.26 mg/mL (3.87 μM assuming a molecular weight of 67.2 kD) Cat. #14-530M, Lot #25502AU, stored at −80° C. • Substrate: WT full-length 6H-MEK, 4.94 mg/mL (154.4 μM assuming a MW of 32 kD) stored at −15° C. • Antibodies: Rabbit (α-P-(Ser 217/221)-MEK-1/2 Ab (from Cell Signaling, Cat. #9121B, Lot 14); Eu-(α-rabbit IgG (from Wallac, Cat. #AD0083, Lot 318663, 710 ug/mL, 4.4 μM); (α-6H-SureLight-APC (from Martek, Cat. #AD0059H, Lot E012AB01, 3.03 μM). • Reader: Envision from PerkinElmer, HTRF reading mode with 412 mirror • Assay Plate: Matrix all-black polypropylene plates (Cat. #4344) • Others: Weidman 384 polypropylene plates (REMP) for compound plate. Assay Procedure: • (1) Prepare Kinase Assay Buffer (KAB): 50 mM HEPES (HyClone) pH7, 10 mM MgCl2, 1 mM DTT, 0.1 mM […], and 0.3 mg/ml BSA. • (2) Prepare 6H-MEK (150 nM) in KAB. Add 12 μL/well to the assay plate. • (3) Prepare ATP (66 μM) in KAB. • (4) Dilute compounds to 2.4 mM and any positive controls to 480 μM in DMSO. Perform 10-point 3× dilution in DMSO. Withdraw 2.5 μL/well of DMSO solution and add to 27.5 μL/well ATP solution in (3). • (5) Mix, then add 6 μL/well of solution in (4) to the assay plate for a DMSO concentration of 2.1% during MEK phosphorylation. • (6) Prepare b-Raf WT (100 μM) in KAB. • (7) Add 6 μL/well of KAB in columns 1-2 and 6 μL/well of b-Raf WT in columns 3-24. • (8) Incubate at 37° C. for 30 min. • (9) Prepare rabbit (α-P-(Ser 217/221 )-MEK-1/2 Ab (1:200 from stock) in AB1: 50 mM HEPES pH7, 0.2 mg/ml BSA, and 43 mM EDTA. • (10) To stop reaction, add 6 μL/well of solution from (9) to the assay plate and incubate at 37° C. for 30 min. • (11) Prepare Eu-(α-rabbit IgG (9 nM) and (α-6H-SureLight-APC (180 nM) in AB2: 50 mM HEPES pH7 and 0.2 mg/mL BSA. • (12) Add 6 μL/well of solution from (11) to the assay plate. • (13) For determining the spectrum cross talk factor, prepare 2 samples following steps (1) to (10). For the blank sample, add 6 μL/well of AB2. For the cross talk factor sample, add 6 μL/well of Eu-anti rabbit IgG (9 nM). • (14) Incubate at room temperature for 1.5 hours. • (15) Read HTRF signals at 615 nm and 665 nm on the Envision. Normalize HTRF signals after spectrum cross-talk correction. b-Raf V600E Mutant HTRF Assay With 6H-MEK as Substrate (Dose Response) Assay Principle:
# The assay utilizes 6H-MEK as the substrate. Upon b-Raf V600E phosphorylation, phosphorylated 6H-MEK is detected with rabbit anti-phospho-MEK1/2, Eu-labeled anti-rabbit, and APC-labeled anti-6H antibodies.
# Reagents and Instruments:
# • Enzyme: recombinant human b-Raf residues 416-end containing a V600E mutation with N-terminal GST-tag from Upstate; (expressed by baculovirus in Sf21 insect cells), 0.26 mg/mL ([…] assuming a molecular weight of 67.3 kD) Cat. #14-5M, Lot #25633AU, stored at −80° C. • Substrate: WT full-length 6H-MEK, 4.94 mg/mL (154.4 μM assuming a MW of 32 kD) stored at −15° C. • Antibodies: Rabbit (α-P-(Ser 217/221)-MEK-1/2 Ab (from Cell Signaling, Cat. #9121B, Lot 14); Eu-(α-rabbit IgG (from Wallac, Cat. #AD0083, Lot 318663, 710 ug/mL, 4.4 μM); (α-6H-SureLight-APC (from Martek, Cat. #AD0059H, Lot E012AB01, 3.03 μM). • Reader: Envision from PerkinElmer, HTRF reading mode with 412 mirror • Assay Plate: Matrix all-black polypropylene plates (Cat. #4344) • Others: Weidman 384 polypropylene plates (REMP) for compound plate. Assay Procedure: • (1) Prepare Kinase Assay Buffer (KAB): 50 mM HEPES (HyClone) pH7, 10 mM MgCl2, 1 mM DTT, 0.1 mM […], and 0.3 mg/ml BSA. • (2) Prepare 6H-MEK (150 nM) in KAB. Add 12 μl/well to the assay plate. • (3) Prepare ATP (66 μM) in KAB. • (4) Dilute compounds to 2.4 mM and positive controls to 480 μM in DMSO. • Perform 10-point 3× dilution in DMSO. […]
# T1 sequence (P15056 416-766 V600E): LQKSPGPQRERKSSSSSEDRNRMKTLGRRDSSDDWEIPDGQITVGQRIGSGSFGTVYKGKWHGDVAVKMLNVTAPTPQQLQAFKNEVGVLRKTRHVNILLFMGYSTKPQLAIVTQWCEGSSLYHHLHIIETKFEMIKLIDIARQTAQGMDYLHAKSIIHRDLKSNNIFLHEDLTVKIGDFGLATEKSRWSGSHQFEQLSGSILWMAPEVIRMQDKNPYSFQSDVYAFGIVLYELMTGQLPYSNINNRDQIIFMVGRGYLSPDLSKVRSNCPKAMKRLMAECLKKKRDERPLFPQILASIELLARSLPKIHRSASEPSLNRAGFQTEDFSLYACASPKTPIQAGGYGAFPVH
row,SMILES,IC50
1,"Cc1ccc(C(=O)Nc2ccc(Cl)cc2)cc1OCc1nn(C)c2ncnc(N)c12 [Example 17, 3-(4-Amino-1-methyl-1H-pyrazolo[3,4-d]pyrimidin-3-ylmethoxy)-N-(4-chloro-phenyl)-4-methyl-benzamide]",< 10 µM
2,"Cc1ccc(NC(=O)c2cccc(Cl)c2)cc1OCc1nn(C)c2ncnc(N)c12 [Example 11, N-[3-(4-Amino-1-methyl-1H-pyrazolo[3,4-d]pyrimidin-3-ylmethoxy)-4-methyl-phenyl]-3-chloro-benzamide]",< 10 µM
3,"Cc1ccc(OCc2ccccc2)cc1OCc1nn(C)c2ncnc(N)c12 [Example 15, 3-(5-Benzyloxy-2-methyl-phenoxymethyl)-1-methyl-1H-pyrazolo[3,4-d]pyrimidin-4-ylamine]",< 10 µM
4,"Cc1ccc(OCc2ccc(Cl)cc2)cc1OCc1nn(C)c2ncnc(N)c12 [Example 19, 3-[5-(4-Chloro-benzyloxy)-2-methyl-phenoxymethyl]-1-methyl-1H-pyrazolo[3,4-d]pyrimidin-4-ylamine]",< 10 µM
5,"Cc1nnc(-c2ccc(C)c(OCc3nn(C)c4ncnc(N)c34)c2)o1 [Example 21, 1-Methyl-3-[2-methyl-5-(5-methyl-[1,3,4]oxadiazol-2-yl)-phenoxymethyl]-1H-pyrazolo[3,4-d]pyrimidin-4-ylamine]",> 10 µM
6,"Cc1ccc(NC(=O)c2ccc(NCCO)c(Cl)c2)cc1OCc1nn(C)c2ncnc(N)c12 [Example 9, N-[3-(4-Amino-1-methyl-1H-pyrazolo[3,4-d]pyrimidin-3-ylmethoxy)-4-methyl-phenyl]-3-chloro-4-(2-hydroxy-ethylamino)-benzamide]",< 10 µM
7,"Cc1noc(-c2ccc(C)c(OCc3nn(C)c4ncnc(N)c34)c2)n1 [Example 13, 4-Amino-1-1-methyl-3-[2-methyl-5-(3-methyl-[1,2,4]oxadiazol-5-yl)-phenoxymethyl]-1H-pyrazolo[3,4-d]pyrimidine]",> 10 µM
8,"Cn1nc(COc2cccc(OCc3ccccc3)c2)c2c(N)ncnc21 [Example 7, 3-(3-Benzyloxy-phenoxymethyl)-1-methyl-1H-pyrazolo[3,4-d]pyrimidin-4-ylamine]",> 10 µM
